Results on 3 compounds are retold here after patent US11649475B2, “Dioxetane compounds and their use for the detection of microorganisms” (NEMIS Technologies AG, priority 2018, dated 2023).

In assay [1] the test system is phosphatidylinositol-specific phospholipase C (PI-PLC). Put plainly: Enzymatic assay of PI-PLC activity with Compound IIIa. The class given is biochemical. The conditions noted are these: 10 μM, 20 min measurement period. As for the experimental part: Varying concentrations of phosphatidylinositol-specific phospholipase C (PI-PLC) were added and luminescence was recorded at room temperature (Table 4). Assays were performed in a white microtiter plate with 0.25 mL total liquid volume.

For assay [2], the system named is Salmonella Enteritidis RKI 05/07992. Put plainly: Limit of detection of Salmonella enterica, Compound IIa versus MUCAP. Format: cell-based. The conditions noted are these: Compound IIa 10 μM versus MUCAP 0.1 mM, PBS, 15% DMSO.
Experimental: Salmonella Enteritidis RKI 05/07992 was cultivated in Nutrient Broth (5 g/I peptone, 5 g/l NaCl, 2 g/L yeast extract, 1 g/l beef extract, pH 7.4) for 20 h (37° C., 150 rpm) and then serially diluted in phosphate buffered saline. Cell suspensions were mixed 1:1 v/v with phosphate buffered saline containing dimethyl sulfoxide (final concentration in assay 15%) and either Compound IIa (final concentration 10 μM) or 4-Methylumbelliferyl caprylate (MUCAP, final concentration 0.1 mM). Assays were performed in microplates, total liquid volume was 0.2 mL. Light emission and fluorescence (excitation 360 nm, emission 455 nm) were recorded with a SpectraMax M5 (Molecular Devices, Sunnyvale, Calif., USA) plate reader. Cell concentration of undiluted culture was estimated from optical density (600 nm).
Assay [3] deals with pig liver esterase. Put plainly: Enzymatic assay of pig liver esterase activity with Compound IIa. To be noted: 62.5 μM, PBS pH 7.4, 10% v/v DMSO, 20 min measurement period.
Experimental: The assay mix was pre-incubated for 20 min at room temperature, then 1:5 v/v of pig liver esterase solutions containing varying enzyme concentrations were added and luminescence was recorded for 20 min at room temperature with a SpectraMax M5 reader in luminescence mode. Assays were performed in a black microtiter plate with a total liquid volume of 0.25 mL.
For assay [4], the system named is Citrobacter freundii ATCC 8090. Put plainly: Luminescence of culture samples after addition of Compound IIa. To be noted: C.f., inoculation density 10^5 CFU/mL, 6 h cultivation, 10 μM. Format: cell-based. From the text:
(§1) Citrobacter freundii ATCC 8090 (C.f., […] negative), Escherichia coli ATCC 25922 (E.c., […] negative), Salmonella Typhimurium (D) ATCC […]., Salmonella enterica ssp. I ser. Typhimurium, […] positive), Salmonella Enteritidis (D) ATCC […]. 1, Salmonella enterica ssp. enterica ser. Enteritidis, […] positive) and Salmonella Enteritidis RKI 05/[…]. 2, Salmonella enterica ssp. enterica ser. […] Similar cell concentrations of all strains were inoculated in triplicate test tubes with Nutrient Broth. […] Sterile saline was added to negative control tubes. […] Final concentration Compound IIa was 10 μM, final concentration of dimethyl sulfoxide was […]. Light emission was recorded with a plate reader equipped with a luminescence detection system.

Assay [5] relates to Escherichia coli ATCC 25922. The assay is described as above. Format: cell-based. To be noted: E.c., inoculation density 10^5 CFU/mL, 6 h cultivation, 10 μM.
Source text: as §1

For assay [6], the system named is Salmonella Enteritidis (D) ATCC 13076. Described as above. The class given is cell-based, Salmonella enterica ssp. enterica ser. Enteritidis. The conditions noted are these: S.E. 1, inoculation density 10^5 CFU/mL, 6 h cultivation, 10 μM.
Source text: as §1

For assay [7], the system named is Salmonella Enteritidis RKI 05/07992. The assay is described as above. The class given is cell-based, Salmonella enterica ssp. enterica ser. Enteritidis. To be noted: for Signal to noise ratio (to sterile) / Mean RLU (n = 3): 6 h cultivation, 10 μM; for Mean RLU (n = 3): 27-30 min after addition.
Source text: as §1

In assay [8] the test system is Salmonella Typhimurium (D) ATCC 14028. The description is as above. The conditions noted are these: S.T., inoculation density 10^5 CFU/mL, 6 h cultivation, 10 μM. The class given is cell-based, Salmonella enterica ssp. I ser. Typhimurium.
Source text: as §1

The test system of assay [9] is glucose. The experiment in a line: Detection of glucose in Escherichia coli culture supernatant with compound VIa and glucose oxidase. Format: biochemical. The conditions noted are these: 40 μM compound VIa in HEPES buffer pH 7.0, 1 mg/mL glucose oxidase, 20 min. As for the experimental part:
Cells were separated from culture supernatant by centrifugation (13'000×g, 2 min). […] A second negative control also contained 5 mM glucose, but no glucose oxidase. Culture supernatant with and without glucose (0.1 mL) was mixed in a white microtiter plate with 0.1 mL of HEPES buffer (100 mM, pH 7.0) containing 40 μM of compound VIa, reacting with hydrogen peroxide) and 1 mg/mL commercially available glucose oxidase from Aspergillus niger. […] Presence of glucose lead to continuously increasing luminescence when compound Via and glucose oxidase were also present.

Assay [10] deals with Methicillin-resistant Staphylococcus aureus ATCC 33592 (MRSA). Put plainly: Luminescence development in cultures with and without oxacillin, Compound IVa. To be noted: oxacillin 20 mg/L, 6 h, 10 μM compound IVa as indicator. The class given is cell-based. As for the experimental part:
(§2) Methicillin-resistant Staphylococcus aureus ATCC 33592 (MRSA), a strain which is resistant to penicillin derivatives such as methicillin and oxacillin, and methicillin-susceptible Staphylococcus aureus ATCC 29213 (MSSA) were cultivated overnight at 37° C. in nutrient broth (5 g/L peptone, 5 g/L sodium chloride, 2 g/L yeast extract, 1 g/L meat extract, pH 7.4) and diluted in sterile saline. MRSA and MSSA strains were inoculated at approx. 10^6 CFU/mL in nutrient broth containing compound IVa at a final concentration of 10 μM. For each strain, one culture was supplemented with oxacillin (20 mg/L final concentration) and one culture was left without antibiotics. Tube cultures were incubated at 37° C. and 150 rpm. A sterile control (nutrient broth with 10 μM of compound IVa) was incubated in parallel. Luminescence of culture samples (0.2 mL in a white microtiter plate) was recorded at regular intervals for 6 h with a SpectraMax M5 plate reader (FIG. 4: Luminescence development in cultures of MRSA and MSSA in the presence and absence of the antibiotic oxacillin). […] Growing and non-growing cultures could be distinguished after 1 h of incubation.

Assay [11] has as its system methicillin-susceptible Staphylococcus aureus ATCC 29213 (MSSA). Described as above. Format: cell-based. The conditions noted are these: oxacillin 20 mg/L, 6 h, 10 μM compound IVa as indicator. As for the experimental part:
as §2

Where [12] appears, read: S.E. 2, inoculation density 10^1 CFU/mL.
Setting [13] is: S.E. 2, inoculation density 10^2 CFU/mL.
[14] abbreviates: S.E. 2, inoculation density 10^3 CFU/mL.
Where [15] appears, read: S.E. 2, inoculation density 10^4 CFU/mL.
[16] abbreviates: S.E. 2, inoculation density 10^5 CFU/mL.

With `CCCCCCCC(=O)Oc1ccc(COc2c(/C=C/C(=O)O)ccc(C3(OC)OOC34C3CC5CC(C3)CC4C5)c2Cl)cc1` (stereo not shown) [Compound IIa], in [1], the “relation of PI-PLC concentration and maximal RLU” value was “positive correlation over two orders of magnitude”. Also, the “limit of detection for Salmonella enterica, lower than with MUCAP” value in assay [2] stood at 625 fold. In addition, the “relation of pig liver esterase concentration and maximal RLU” value in [3] is listed as “positive linear correlation over two orders of magnitude”. The “Signal to noise ratio (to sterile)” value in assay [4] worked out at 12; in [5] it was 6; in [6] it was 408; in assay [7] (setting [12]), 2; in [7] (setting [13]), 9; in assay [7] (setting [14]), 72. Further, the “Signal to noise ratio (to sterile)” value in [7] (setting [15]) is reported as 275; in [7] (setting [16]) it was 693; in assay [8] it was 283. The “Mean RLU (n = 3)” value in assay [4] (27-30 min after addition) came to 6480 RLU; in assay [5] (27-30 min after addition), 3504 RLU; in [6] (27-30 min after addition), 158262 RLU; in assay [7] (setting [12]), 1041 RLU; in [7] (setting [13]), 5100 RLU; in assay [7] (setting [14]), 40236 RLU. In addition, the “Mean RLU (n = 3)” value is on record as 154011 RLU in [7] (setting [15]), 387911 RLU in [7] (setting [16]) and 228202 RLU in assay [8] (27-30 min after addition). Moreover, the “detectable inoculation density of Salmonella Enteritidis” value in assay [7] (after 6 h of incubation, signal-to-noise ratio of 2 relative to sterile controls) was found to be 10 CFU/mL.

Turning to `COC1(c2ccc(/C=C/C(=O)O)c(B3OC(C)(C)C(C)(C)O3)c2)OOC12C1CC3CC(C1)CC2C3` (stereo not shown) [VIa], the “rate of increase of luminescence” value in assay [9] was “positive correlation with the glucose concentration”.

`Cc1onc(-c2ccccc2)c1C(=O)N[C@@H]1C(=O)N2[C@@H]1SC(C)(C)[C@@H]2C(=O)O` [oxacillin]: the “growth by time course of luminescence intensity” value is “multiplied both in the presence and the absence of oxacillin” in assay [10]; “showed an increase in luminescence only in the antibiotic-free culture” in assay [11].
